Results: patent publication US7820379B2, “Process for high throughput screening of CpG-based immuno-agonist/antagonist” (Coley Pharmaceutical GmbH, priority 2000, dated 2010)

Target: T1, human TLR9 (Homo sapiens, UniProt Q9NR96, H530R/Q688R)
T1 construct: expressed in transfected cells
T1 sequence (Q9NR96 26-1032 H530R/Q688R): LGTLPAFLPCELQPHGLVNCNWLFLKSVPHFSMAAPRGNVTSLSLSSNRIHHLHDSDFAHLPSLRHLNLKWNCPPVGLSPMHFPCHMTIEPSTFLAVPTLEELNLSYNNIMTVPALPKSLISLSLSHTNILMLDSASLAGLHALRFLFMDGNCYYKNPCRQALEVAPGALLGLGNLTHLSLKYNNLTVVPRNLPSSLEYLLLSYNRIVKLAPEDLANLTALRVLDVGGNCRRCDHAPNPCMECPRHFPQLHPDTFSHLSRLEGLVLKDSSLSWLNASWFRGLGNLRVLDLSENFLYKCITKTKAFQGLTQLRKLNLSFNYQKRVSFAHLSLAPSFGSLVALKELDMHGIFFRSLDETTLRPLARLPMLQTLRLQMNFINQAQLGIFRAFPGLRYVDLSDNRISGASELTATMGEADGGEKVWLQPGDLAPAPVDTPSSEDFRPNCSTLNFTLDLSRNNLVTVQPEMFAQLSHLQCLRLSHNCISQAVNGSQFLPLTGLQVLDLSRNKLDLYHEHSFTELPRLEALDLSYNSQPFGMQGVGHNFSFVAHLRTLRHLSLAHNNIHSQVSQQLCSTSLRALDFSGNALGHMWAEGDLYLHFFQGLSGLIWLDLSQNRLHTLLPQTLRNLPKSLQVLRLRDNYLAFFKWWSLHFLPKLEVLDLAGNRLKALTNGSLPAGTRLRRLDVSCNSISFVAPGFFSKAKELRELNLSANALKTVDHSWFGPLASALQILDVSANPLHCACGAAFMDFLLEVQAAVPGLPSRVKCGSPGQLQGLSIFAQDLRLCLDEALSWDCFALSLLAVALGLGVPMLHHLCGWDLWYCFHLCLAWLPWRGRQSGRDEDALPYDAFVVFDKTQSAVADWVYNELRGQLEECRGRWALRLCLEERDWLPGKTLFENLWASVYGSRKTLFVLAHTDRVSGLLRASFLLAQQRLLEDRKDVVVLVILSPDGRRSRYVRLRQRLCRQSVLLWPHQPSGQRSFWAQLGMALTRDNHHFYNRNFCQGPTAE
Assay: NF-κB-luciferase activation in 293 cells transfected with human TLR9 (293-hTLR9-luc)
Format: cell-based
Conditions: for EC50: ODN concentration of half-maximal activation, 293-hTLR9-luc cells, NF-κB-driven luciferase readout, 12 hours, read-out: 293-hTLR9 Kac; for NF-κB activation by luciferase readout: 293 cells transiently transfected with hTLR9 and NF-κB-luc, 8 h, ODN 2 μM, LPS 100 ng/ml
Text: Since NF-κB activation is central to the IL-1/TLR signal transduction pathway (Medzhitov R et al., Mol Cell 2:253-258 (1998); Muzio M et al., J Exp Med 187:2097-2101 (1998)), cells were transfected with hTLR9 or co-transfected with hTLR9 and a NF-κB-driven luciferase reporter construct. Human fibroblast 293 cells were transiently transfected with (FIG. 1A) hTLR9 and a six-times NF-κB-luciferase reporter plasmid (NF-κB-luc, kindly provided by Patrick Baeuerle, Munich, Germany) or (FIG. 1B) with hTLR9 alone. After stimulus with CpG-ODN (2006, 2 μM, […], SEQ ID NO:112), GpC-ODN (2006-GC, 2 μM, […], SEQ ID NO:118), LPS (100 ng/ml) or media, NF-κB activation by luciferase readout (8 h, FIG. 1A) or IL-8 production by ELISA (48 h, FIG. 1B) were monitored. Results are representative of three independent experiments.
To generate stable clones expressing human TLR9, murine TLR9, or either TLR9 with the NF-κB-luc reporter plasmid, 293 cells were transfected in 10 cm plates (2×10^6 cells/plate) with 16 μg of DNA and selected with 0.7 mg/ml G418 (PAA Laboratories GmbH, Cölbe, Germany). The clones were also screened for IL-8 production or NF-κB-luciferase activity after stimulation with ODN. Four different types of clones were generated. • 293-hTLR9-luc: expressing human TLR9 and 6-fold NF-κB-luciferase reporter • 293-mTLR9-luc: expressing murine TLR9 and 6-fold NF-κB-luciferase reporter • 293-hTLR9: expressing human TLR9 • 293-mTLR9: expressing murine TLR9 […]
Because stable TLR9 transfectants mirrored primary cell responsiveness to CpG-DNA (FIGS. 4 and 5), it was hypothesized that stable transfectants could potentially discern species-specific CpG-motifs through TLR9 receptors. Therefore 293-hTLR9-luc (expressing human TLR9 and 6-fold NF-κB-luc reporter), 293-mTLR9-luc (expressing murine TLR9 and 6-fold NF-κB-luc reporter), 293-hTLR9 (expressing human TLR9) and 293-mTLR9 (expressing murine TLR9) clones were tested for CpG-DNA motif responsiveness. […] Depicted are both NF-κB-driven luciferase and IL-8 production as readout. […] After lysis of the cells luciferase can be detected photometrically based on an enzymatic reaction by luciferase which creates photons. IL-8 production was monitored using enzyme-linked immunosorbent assay (ELISA). FIG. 11 depicts clones stimulated with ODN 2006 (filled circle), ODN 2006-GC (open circle), ODN 1668 (filled triangle) or ODN 1668-GC (open triangle) at indicated concentrations and NF-κB activation or IL-8 production were measured after 10 and 48 hours, respectively. Results shown in FIG. 11 are representative of three independent experiments. Strikingly, CpG-motif sequence specificity was conferred in a species-specific manner by TLR9. Additionally, the half-maximal concentration for either 2006 or 1668 appears nearly the same as those determined on primary cells (compare FIG. 10 and FIG. 11).
Although 2006 and 1668 are discussed in terms of CpG-motif differences, they are very different in several aspects (see Table 5 for comparison). The lengths are different, 24 versus 20 nucleotides, and 2006 has four CG dinucleotides compared to one in 1668. Additional differences are the CG position relative to the 5′ and 3′ ends and also 5′ sequence differences. In order to determine if motif specificity is a quality of the motif and not the global sequence environment, for this experiment several sequences were produced holding these variables constant. As a starting point, the 1668 sequence was modified by converting the central C to T and the distal TG to CG, thereby creating a second CG in the resulting sequence 5000 (SEQ ID NO:130, Table 5). Then point nucleotide changes were made, progressing toward a 2006-like sequence, 5007 (SEQ ID NO:98). The ODN 5002 (SEQ ID NO:132) is most like 1668 with the exception that C's at positions 12 and 19 have been converted to T's. […]

Row | human TLR9 signaling response (CpG-ODN 2006 compared with CpG-ODN 1668) | Substance | EC50 | NF-κB activation by luciferase readout
1 |  | TCCATGACGTTCTTGACGTT (listed as DNA, chemistry not fully specified) [ODN 5001] | 7 µM | 
2 |  | lipopolysaccharide [LPS] |  | not
3 |  | TCCATGTCGTTTTTGTCGTT (listed as DNA, chemistry not fully specified) [ODN 5007] | 0.7 µM | 
4 |  | TCCATGTCGTTCTTGATGTT (listed as DNA, chemistry not fully specified) [ODN 5004] | 5 µM | 
5 |  | TCCATGTCGTTTTTGATGTT (listed as DNA, chemistry not fully specified) [ODN 5005] | 3 µM | 
6 | significantly stronger | TCGTCGTTTTGTCGTTTTGTCGTT [ODN 2006] | 0.4 µM | responded
7 |  | TCCATGAGCTTCCTGATGCT (listed as DNA, chemistry not fully specified) [ODN 1668-GC] | > 10 µM | 
8 |  | TCCATGACGTTCCTGATGCT (listed as DNA, chemistry not fully specified) [ODN 1668] | > 10 µM | 
9 |  | TGCTGCTTTTGTGCTTTTGTGCTT (listed as DNA, chemistry not fully specified) [ODN 2006-GC] | > 10 µM | 
10 |  | TCCATGTCGTTTTTGTTGTT (listed as DNA, chemistry not fully specified) [ODN 5006] | 3 µM | 
11 |  | TCCATGACGTTCTTGACGCT (listed as DNA, chemistry not fully specified) [ODN 5000] | 10 µM | 
